Reference: patent US20240261444A1, “RIGIDIFIED MACROCYCLES, COMPLEXES WITH RADIONUCLIDES, AND USE IN TARGETED RADIOTHERAPY OF CANCER” (Cornell University, priority 2021, published 2024)
Read-outs that look alike come from different tables or passages of the source.

Assays:
[1] = Protonation constants by potentiometric titration; type: physicochemical; settings: I=0.1 M KCl, 25° C.
Procedure: Potentiometric Titrations. Stability constant measurements were carried out by titrating an aqueous solution (˜15 mL) of ligand (˜1 mM), metal (˜1 mM), and HCl (˜10 mM) with standardized KOH (0.1 M). The ionic strength of the solution was maintained at 0.1 M using KCl. The titration method employed a 0.1 mV/min drift limit with a minimum and maximum wait time of 0 s and 300 s respectively between addition of KOH aliquots (0.015 mL volume increments). […] The titration data within the pH range of 2.2-11.3 were analyzed using Hyperquad2013 software. The stability constants were calculated from the average of three independent titrations (using three independently prepared ligand stock solutions from three independent synthetic preparations of ligands).

[2] = Thermodynamic stability constants of barium complexes by potentiometric titration; settings: for pBa (−log [M]free): [M]tot = 10^−6 M, [L]tot = 10^−5 M; for pBa (−log [M]free) / log KBa′ (conditional stability constant): pH 7.4, 25° C., I = 0.1M KCl
Procedure: Thermodynamic stability studies.
(§1) Potentiometric Titrations. Stability constant measurements were carried out by titrating an aqueous solution (˜15 mL) of ligand (˜1 mM), metal (˜1 mM), and HCl (˜10 mM) with standardized KOH (0.1 M). The ionic strength of the solution was maintained at 0.1 M using KCl. The titration method employed a 0.1 mV/min drift limit with a minimum and maximum wait time of 0 s and 300 s respectively between addition of KOH aliquots (0.015 mL volume increments). No metal hydroxide precipitation was observed within the pH range and concentration employed. […] The stability constants were calculated from the average of three independent titrations (using three independently prepared ligand stock solutions from three independent synthetic preparations of ligands).

[3] = Thermodynamic stability constants of lanthanum complexes by potentiometric titration; settings: for pLa (−log [M]free): [M]tot = 10^−6 M, [L]tot = 10^−5 M; for pLa (−log [M]free) / log KLa′ (conditional stability constant): pH 7.4, 25° C., I = 0.1M KCl; for ranking of log KLaL of lanthanum-ligand complexes: equimolar La^3+; for ranking of log KLaL of lanthanum-ligand complexes / stability of complexes with La^3+ (in words): potentiometric titration
Procedure: Thermodynamic stability studies.
as §1

[4] = pH 7.4
Procedure: Thermodynamic stability studies.
as §1

[5] = pH 7.4; remark: listed apart in the source
Procedure: Thermodynamic stability studies.
as §1

[6] = type: physicochemical
Procedure: H2BZmacropa-NCS Hydrolysis. The stability of BZmacropa-NCS^2— towards hydrolysis was tested as the followings. A solution (1 mL) of H2BZmacropa-NCS (≈1.5 mM) was prepared in 0.1 M Na2CO3/NaHCO3pH 9.1 buffer and stored at room temperature (≈23±1° C.) in a vial covered with aluminum foil. This solution was analyzed periodically by analytical HPLC (method quick-MeCN, 5 μL aliquots) for over a week.

[7] = target: T1, human GPC3 protein (Homo sapiens, UniProt P51654); assay: Binding affinity by bio-layer interferometry (BLI); settings: immobilized biotinylated human GPC3, antibody 0-25 nM, global fit
T1 construct: biotin (biotinylated); purchased Acro Biosystems, Newark, DE
Procedure: Biotinylated human GPC3 protein (Acro Biosystems, Newark, DE) was diluted to 1 μg/mL in assay buffer: 1×PBS with 0.02% Tween-20 and 0.1% acetylated BSA (Electron Microscopy Sciences, Hatfield, PA) in a 96-well plate and loaded onto streptavidin biosensors (ForteBio, Menlo Park, CA). Antibodies were diluted in assay buffer at 4 concentrations from 0-25 nM and loaded into a 96-well plate (final volume of 200 μL). GPC3 was loaded to a density of 0.3 to avoid avidity affects. Reference wells containing buffer only, GPC3-only and antibody only were used as blanks. Plates were run on an Octet Red96 system (FortéBio, Menlo Park, CA) and analyzed with ForteBio Octet Data Analysis software (v.11). […] The combined association and dissociation kinetic data across all concentrations were fit using the global fitting model in the Octet Analysis Studio software.

[8] = type: in vivo, mice
Procedure: Biodistribution. […] At 48 and 96 h post-injection, mice (n=3-4 per time point) were euthanized. Their organs were harvested and weighed, then counted on a gamma counter after allowing 24 h for ^225Ac daughters to equilibrate. The activity in each organ was decay-corrected using a standard of known activity prepared at the same time as the injections. Radiotracer uptake in each organ was calculated by dividing the % injected activity (% IA) in each organ by the organ's weight. Measurement errors are reported as the standard deviation of the % IA/g values (FIGS. 2A-2B).

Row | Molecule | log K1 (protonation constant) [1] | log K2 (protonation constant) [1] | log K3 (protonation constant) [1] | log K4 (protonation constant) [1] | log KBaL ([2]; I=0.1 M KCl, 25° C.) | pBa (−log [M]free) [2] | log KLaL ([3]; I=0.1 M KCl, 25° C.) | pLa (−log [M]free) [3] | log KLa′ (conditional stability constant) [3] | log KBaHL ([2]; I=0.1 M KCl, 25° C.) | ranking of log KLaL of lanthanum-ligand complexes [3] | log KBa′ (conditional stability constant) [2] | also measured
1 | O=C(O)CN1CCN(CC(=O)O)CCN(CC(=O)O)CCN(CC(=O)O)CC1 [DOTA] | 11.14 | 9.69 | 4.85 | 3.95 | 11.75 | 6.76 | 21.7 | 16.62 | 15.67 | – | – | 5.72 | –
2 | O=C(O)CN(CCN(CC(=O)O)CC(=O)O)CCN(CC(=O)O)CC(=O)O [DTPA] | 10.34 | 8.59 | 4.25 | 2.71 | 8.78 | 6.15 | 19.48 | 16.28 | – | 5.34 | – | – | log K5 (protonation constant) [1]: 2.18; log KBa′ (conditional stability constant) [4]: 4.63; log KLa′ (conditional stability constant) [5]: 15.32
3 | O=C(O)CN(CCN(CC(=O)O)CC(=O)O)CC(=O)O [EDTA] | 10.19 | 6.13 | 2.69 | 2.00 | 7.80 | 6.28 | 15.46 | 13.60 | 12.65 | – | – | 4.99 | –
4 | O=C(O)c1cccc(CN2CCOCCOCCN(Cc3cccc(C(=O)O)n3)CCOc3ccccc3OCC2)n1 [H2BZmacropa, 6,6′-((2,3,5,6,8,9,11,12,14,15-decahydro-4H,13H-benzo[b][1,4,10,13]tetraoxa[7,16]diazacyclooctadecine-4,13-diyl)bis(methylene))dipicolinic acid] | 7.06 | 6.41 | 3.33 | 2.49 | 9.09 | 9.87 | 13.98 | – | – | 3.56 | H2macropa>H2BZmacropa>H2BZ2macropa | 8.91 | stability of complexes with La^3+ (in words) [3]: form highly stable complexes with La^3+
5 | O=C(O)c1cccc(CN2CCOCCOCCN(Cc3cc(N=C=S)cc(C(=O)O)n3)CCOCCOCC2)n1 [H2macropa-NCS] | – | – | – | – | – | – | – | – | – | – | – | – | time for complete hydrolysis ([6]; 0.1 M Na2CO3/NaHCO3 pH 9.1 buffer, room temperature): more than a week's time; half-life of hydrolysis of the thiocyanate functional group ([6]; buffer, pH 9.1): 56 h
6 | GC33-BZM: "GC33-BZmacropa conjugate" | – | – | – | – | – | – | – | – | – | – | – | – | Kd [7]: 0.19 nM
7 | ^225Ac[Ac]-GC33-BZM: "The radioconjugate ^225Ac[Ac]-GC33-BZM" | – | – | – | – | – | – | – | – | – | – | – | – | tumor targeting compared with ^225Ac[Ac]-GC33-M ([8]; mice, intravenous 100 nCi, 48 and 96 h): no significant difference; tumor uptake ([8]; mice, intravenous 100 nCi, 48 and 96 h post-injection): clear, specific tumor uptake at both 48 and 96 h post-injection, with tumor signal greater than that of all organs at both time points; off-target accumulation in liver and femur compared with ^225Ac[Ac]-GC33-M ([8]; mouse, in vivo): higher than that of ^225Ac[Ac]-GC33-M in both the liver and femur at 48 h

More lines, main results first:

Row | log K1 (protonation constant) [1] | log K2 (protonation constant) [1] | log K3 (protonation constant) [1] | log K4 (protonation constant) [1] | log KBaL ([2]; I=0.1 M KCl, 25° C.) | pBa (−log [M]free) [2] | log KLaL ([3]; I=0.1 M KCl, 25° C.) | pLa (−log [M]free) [3] | log KLa′ (conditional stability constant) [3] | log KBaHL ([2]; I=0.1 M KCl, 25° C.) | ranking of log KLaL of lanthanum-ligand complexes [3] | Molecule | log KBa′ (conditional stability constant) [2] | also measured
8 | – | – | – | – | – | – | – | – | – | – | H2macropa>H2BZmacropa>H2BZ2macropa | O=C(O)c1cccc(CN2CCOc3ccccc3OCCN(Cc3cccc(C(=O)O)n3)CCOc3ccccc3OCC2)n1 [H2BZ2macropa, 6,6′-((6,7,9,10,17,18,20,21-octahydro-8H,19H-dibenzo[b,k][1,4,10,13]tetraoxa[7,16]diazacyclooctadecine-8,19-diyl)bis(methylene))dipicolinic acid] | – | stability of complexes with La^3+ (in words) [3]: form highly stable complexes with La^3+
9 | 7.41 | 6.90 | 3.23 | 2.45 | 11.11 | 11.69 | 14.99 | 15.58 | 14.63 | 3.76 | H2macropa>H2BZmacropa>H2BZ2macropa | O=C(O)c1cccc(CN2CCOCCOCCN(Cc3cccc(C(=O)O)n3)CCOCCOCC2)n1 [H2macropa] | 10.74 | log KBaH2L ([2]; I=0.1 M KCl, 25° C.): 2.49; log KLaHL ([3]; I=0.1 M KCl, 25° C.): 2.28
